From patent US4528294A, “Benzoyl-phenyl-piperidine derivatives” (Societe de Recherches Industrielle S.O.R.I., priority 1981, dated 1985)

Key:
lymphocytes of the mouse = assay: Stimulation in vitro of mouse lymphocytes (tritium-marked thymidine incorporation); format: cell-based, mouse (DBA/2); conditions: at the optimal concentration; thymidine incorporation in 24 hours with respect to control culture; PHA and PWM
Protocol: Lymphocytes (5×10^5 cells per measurement) extracted from the spleen of inbred mice (DBA/2) are incubated for 36 hours at 37° C. in an atmosphere of oxygen with 5% of CO2 in a culture medium (RPMI 1640) containing:
10% (by weight) of foetal calf serum (100 μl per measurement)
10 μl of a solution of lectins in the proportion of 5 μg/ml of phytohemaglutinine (PHA) and 40 μg/ml of Pokeweed Mitogen (PWM), and
the substance to be tested.
The activity is evaluated by measuring the radio-activity obtained by incorporation in 24 hours of 2 μCi (i.e. 7.4×10^4 becquerels) of tritium-marked thymidine, with respect to a control culture.
The results obtained are grouped together in Table II hereinbelow which gives the optimum concentration of the products in μg/ml, and where symbols +, ++ and +++ signify: […]

mouse = assay: Toxicity (LD-50 and LD-0), i.p. route in the mouse; format: in vivo
Protocol: (§1) The toxicity (LD-50 and LD-0) was determined by the i.p. route in the mouse according to the technique of S. T. Litchfield described in J. Pharm. Exp. Ther. 96, 99 (1949).

[1] = Toxicity (LD-50 and LD-0), i.p. route in the mouse; format: in vivo; conditions: in vivo, ip
Protocol: as §1

delayed hypersensitivity = assay: Delayed hypersensitivity test; format: in vivo; conditions: single dose of 5 mg/kg per os, mouse, three days before sensitization
Text: Furthermore, the product of Example 2 (Code No. 442) was studied according to the delayed hypersensitivity test following the modus operandi described by P. H. Lagrange et al., J. Exp. Med. 139, 1529-1539 (1974).

| SMILES | Stimulation (lymphocytes of the mouse) | LD-0 (mouse) [mg/kg] | LD50 [1] [mg/kg] | reduction of the delayed hypersensitivity (delayed hypersensitivity) |
| --- | --- | --- | --- | --- |
| Cc1cc(C(=O)c2cc(N)ccc2N2CCC(C)CC2)cc(C)c1C [Example 29] | + (stimulation of 0 to 50%) | > 800 |  |  |
| CC1CCN(c2ccc(N)cc2C(=O)c2ccccc2Cl)CC1 [Example 8] | + (stimulation of 0 to 50%) | > 800 |  |  |
| Cc1ccc(C(=O)c2cc(N)ccc2N2CCC(C)CC2)cc1 [Example 15] | ++ (stimulation of 50% to 100%) | > 800 |  |  |
| CC1CCN(c2ccc(N)cc2C(=O)c2ccccc2)CC1 [Example 27, [2-(4-methyl-1-piperidinyl)-5-aminophenyl]-phenyl-methanone] | + (stimulation of 0 to 50%) | > 800 |  |  |
| CC1CCN(c2ccc(N(C)C)cc2C(=O)c2ccc(Cl)cc2)CC1 [Example 5] | + (stimulation of 0 to 50%) | > 800 |  |  |
| CC1CCN(c2ccc(N)cc2C(=O)c2ccc(Br)cc2)CC1 [Example 30] |  | > 800 |  |  |
| CC1CCN(c2ccccc2C(=O)c2ccccc2)CC1 [Example 4, [2-(4-methyl-1-piperidinyl)-phenyl]-phenyl-methanone] |  | > 800 |  |  |
| CC1CCN(c2ccccc2C(=O)c2ccc(Cl)cc2)CC1 [Example 21] |  |  | 1800 |  |
| Nc1ccc(N2CCCCC2)c(C(=O)c2ccc(Cl)cc2)c1 [Example 12] | + (stimulation of 0 to 50%) | > 800 |  |  |
| COc1ccc(C(=O)c2ccccc2N2CCC(C)CC2)cc1 [Example 24] | + (stimulation of 0 to 50%) | > 800 |  |  |
| CC1CCN(c2ccc(N)cc2C(=O)c2ccc(F)cc2)CC1 [Example 17] | + (stimulation of 0 to 50%) | > 800 |  |  |
| CC1CCN(c2ccc([N+](=O)[O-])cc2C(=O)c2ccc(Cl)cc2)CC1 [Example 1, [2-(4-methyl-1-piperidinyl)-5-nitrophenyl]-(4-chlorophenyl)-methanone] | ++ (stimulation of 50% to 100%) | > 800 |  |  |
| CC1CCN(c2ccc(N)cc2C(=O)c2ccc(Cl)cc2)CC1 [Example 2, [2-(4-methyl-1-piperidinyl)-5-aminophenyl]-(4-chlorophenyl)-methanone] | +++ (stimulation greater than 100%) |  | 1300 | reduction by half |
| CC1CCN(c2ccc(N)cc2C(=O)c2ccc(Cl)c(Cl)c2)CC1 [Example 28] | ++ (stimulation of 50% to 100%) | > 800 |  |  |
| Cc1ccc(C(=O)c2cc(N)ccc2N2CCC(C)CC2)c(C)c1 [Example 16] | ++ (stimulation of 50% to 100%) |  | 750 |  |
| CC1CCN(c2ccc(Cl)cc2C(=O)c2ccc(Cl)cc2)CC1 [Example 22] | + (stimulation of 0 to 50%) |  | 1800 |  |
| CC1CCCCN1c1ccc(N)cc1C(=O)c1ccc(Cl)cc1 (centres unmarked) [Example 20] | +++ (stimulation greater than 100%) | > 800 |  |  |
| CNc1ccc(N2CCC(C)CC2)c(C(=O)c2ccc(Cl)cc2)c1 [Example 6, [2-(4-methyl-1-piperidinyl)-5-methylamino-phenyl]-(4-chlorophenyl)methanone] | + (stimulation of 0 to 50%) | > 800 |  |  |
| CC1CC(C)CN(c2ccc(N)cc2C(=O)c2ccc(Cl)cc2)C1 (centres unmarked) [Example 19] | ++ (stimulation of 50% to 100%) | > 800 |  |  |
| COc1ccc(C(=O)c2cc(N)ccc2N2CCC(C)CC2)cc1 [Example 23] | ++ (stimulation of 50% to 100%) | > 800 |  |  |
| CCOC(=O)Nc1ccc(N2CCC(C)CC2)c(C(=O)c2ccc(Cl)cc2)c1 [Example 3, [2-(4-methyl-1-piperidinyl)-5-(N-ethoxycarbonyl-amino)-phenyl]-(4-chlorophenyl)-methanone] | ++ (stimulation of 50% to 100%) | > 800 |  |  |
| COc1ccc(C(=O)c2cc(N)ccc2N2CCC(C)CC2)cc1OC [Example 9] | + (stimulation of 0 to 50%) | > 800 |  |  |
| CC1CCCN(c2ccc(N)cc2C(=O)c2ccc(Cl)cc2)C1 (centres unmarked) [Example 14] | ++ (stimulation of 50% to 100%) |  |  |  |
| CC(C)(C)C1CCN(c2ccc(N)cc2C(=O)c2ccc(Cl)cc2)CC1 [Example 31] |  | > 800 |  |  |
